# Results taken from patent US8937167B2 (Washington University, priority 2009, dated 2015).
# Read-outs that look alike come from different tables or passages of the source.
# Columns and labels:
# UTI89 biofilm = test: UTI89 type 1 dependent biofilm formation (inhibition/prevention) assay on PVC, crystal violet; assay type: cell-based, uropathogenic E. coli UTI89; conditions: Escherichia coli
# Method: In yet other embodiments, activity of the compound may be measured using the ability of the compound to prevent or disrupt biofilm formation.
# UTI89 biofilm was grown in LB+/− mannoside for 24 h at 22° C. in PVC plates and quantitated using crystal violet. UTI89 biofilm for confocal microscopy was grown in LB for 24 h at 22° C. on PVC coverslips. Mannoside was then added and biofilm was grown for an additional 16 h. Coverslips were then washed in PBS, fixed in 2% paraformaldehyde and stained with SYTO9 prior to confocal microscopy. For all animal experiments UTI89 or PBC-1 was grown 2×24 h statically in LB at 37° C. and inoculated at a dose of 1×10^7 bacteria in 50 μl. All mice used were female C3H/HeN (Jackson). For the pretreatment studies, bacteria were incubated with mannoside for 20 min prior to inoculation into the mouse. […] For CFU counts, bladders were harvested at 6 hpi and placed in 1 mL PBS. Bladders were then homogenized, diluted and plated on LB. After growth at 37° C. overnight, bacterial counts were determined. LacZ staining and gentamicin protection assays were performed at 6 hpi. […] Water was changed daily with fresh antibiotics. Standard growth curve assays and hemagglutination assays were performed with TMP-SMZ. All statistical analysis performed was a two-tailed Mann-Whitney U test.
# (§1) Biofilm assay. UTI89 was grown in LB broth in wells of PVC microtiter plates at 23° C. in the presence of individual mannosides at varying concentrations. After 48 h of growth, wells were rinsed with water and stained with crystal violet for quantification as described. For biofilm disruption activity in PVC plates, UTI89 was grown in LB broth in wells of PVC microtiter plates at 23° C. After 24 h of growth, mannoside was added and biofilms were grown for an additional 16 h. Wells were then rinsed, stained with crystal violet and quantified. For biofilm disruption activity on PVC coverslips, UTI89 was grown in LB broth in 50 mL conicals containing PBC coverslips at 23° C. After 24 h of growth, 0.3 μM ZFH-2056 was added and biofilm was grown for an additional 16 h.
# UTI89 biofilm was grown in LB+/− mannoside for 24 h at 22° C. in PVC plates and quantified using crystal violet. UTI89 biofilm for confocal microscopy was grown in LB for 24 h at 22° C. on PVC coverslips followed by mannoside treatment for 16 h. For all animal experiments UTI89 or PBC-1 was grown 2×24 h statically in LB at 37° C. and inoculated at a dose of 1×10^7 bacteria in 50 μl. All mice used were female C3H/HeN (Harlan). For the chronic UTI model, mice were infected for 2 weeks prior to treatment with mannoside. […] For oral dosing, 100 μl of 10 mg/ml (50 mg/kg) or 20 mg/ml (100 mg/kg) mannoside in 8% DMSO was inoculated with a gavage needle 30 min prior to inoculation of bacteria. […] For CFU counts, bladders were harvested at 6 hpi and placed in 1 mL PBS. Bladders were then homogenized, diluted and plated on LB. After growth at 37° C. overnight, bacterial counts were determined. LacZ staining and gentamicin protection assays were performed at 6 hpi. […] Water was changed daily with fresh antibiotics. Standard growth curve and hemagglutination assays were performed. All statistical analysis performed was a two-tailed Mann-Whitney U test. […] Compounds 7-10 were prepared using slightly modified procedures. All compounds are >95% pure as determined by HPLC/MS and ^1H NMR.
# as §1, with “UTI89” for “Biofilm assay. UTI89”, “For biofilm disruption activity on PVC coverslips, UTI89 was grown in LB broth in 50 mL conicals containing PBC coverslips at 23° C. After 24 h of growth, 0.3 μM ZFH-2056 was added and biofilm was grown for an additional 16 h.” left out
# FimH [1] = biological target: FimH (Escherichia coli, UniProt P08191); test: biochemical; assay type: binding, E. coli
# Source text: In order to more accurately determine the relative contributions of both binding affinity to FimH versus other compound properties to the potency seen in the cellular HA titer assay, a high-throughput fluorescence polarization (FP) (or anisotropy) competitive binding assay was developed using a fluorescent-labeled mannoside ligand shown in Scheme 4.
# A fluorescent polarization assay was developed and miniaturized to monitor the direct binding of a synthesized fluorescently labeled butyl mannose derivative to the FimH receptor as well as competitive displacement by other synthetic mannosides. This fluorescent polarization assay provides a rapid method for monitoring improvements to receptor affinity during the synthetic process, as well as providing Kd binding affinity measurements.
# FimH [2] = biological target: FimH (Escherichia coli, UniProt Q1R2J4); conditions: for HAI Titer EC>50: Table 21;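 on all read-outs here: hemagglutination inhibition of guinea pig erythrocytes agglutinated by type 1 piliated uropathogenic E. coli via FimH mannose binding, quantified through serial dilutions of compound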
# [3] = read-out: Biofilm IC50 [calculated]
# [4] = Table 13, competition with FAM mannoside 20, read-out: FP Binding EC50
# [5] = FimH EC50 (μM)-June 30, June 30 determination
# [6] = read-out: Biofilm IC50 (approximated)
# [7] = read-out: Biofilm Prevention IC50
# [8] = Table 19, Examples 30-36 numbering
# [9] = read-out: HA 50% titer EC90, Table 12, Example 6 numbering
smiles,measurement,setting,value
"Cc1cc(=O)oc2cc(OC3OC(CO)C(O)C(O)C3O)ccc12 [4-methylumbellferyl-α-D-mannoside, reference compound]",IC50,UTI89 biofilm; [3],1.7 µM
CCCCO[C@H]1O[C@H](CO)[C@@H](O)[C@H](O)[C@@H]1O [Butylman],EC50,FimH [1]; [4],0.245 µM
"OCC1OC(OCc2ccccc2)C(O)C(O)C1O (stereo not shown) [Compound 1ZFH60, 2-benzyloxy-6-(hydroxymethyl)tetrahydropyran-3,4,5-triol]",HAI Titer EC>90,FimH [2],60.000 µM
same,EC50,FimH [1]; FimH EC50,0.133 µM
same,EC50,FimH [1]; [5],0.242 µM
"CC(=O)Nc1ccc(OC2OC(CO)C(O)C(O)C2O)cc1 (stereo not shown) [Compound 1ZFH75, N-[4-[3,4,5-trihydroxy-6-(hydroxymethyl)tetrahydropyran-2-yl]oxyphenyl]acetamide]",HAI Titer EC>90,FimH [2],8.000 µM
same,EC50,FimH [1]; FimH EC50,0.108 µM
same,EC50,FimH [1]; [5],0.135 µM
same,IC50,UTI89 biofilm; [6],~100 µM
same,IC50,UTI89 biofilm; [3],~59.4 µM
CCCCOC1OC(CO)C(O)C(O)C1O (stereo not shown) [Compound 1ZFH84],HAI Titer EC>50,FimH [2]; ZFH/JWJ codes,125.000 µM
same,IC50,UTI89 biofilm; [7],~500 µM
CC(=O)Nc1cccc(OC2OC(CO)C(O)C(O)C2O)c1 (stereo not shown) [Compound 1ZFH100],HAI Titer EC>90,FimH [2],12.000 µM
same,EC50,FimH [1]; FimH EC50,0.105 µM
same,EC50,FimH [1]; [5],0.216 µM
"COC(=O)Cc1ccc(OC2OC(CO)C(O)C(O)C2O)cc1 (stereo not shown) [Compound 1ZFH171, methyl 2-[4-[3,4,5-trihydroxy-6-(hydroxymethyl)tetrahydropyran-2-yl]oxyphenyl]acetate]",HAI Titer EC>90,FimH [2],30.000 µM
same,IC50,UTI89 biofilm; [6],~100 µM
"CCc1ccc(OC2OC(CO)C(O)C(O)C2O)cc1 (stereo not shown) [Compound 1ZFH178, 2-(4-ethylphenoxy)-6-(hydroxymethyl)tetrahydropyran-3,4,5-triol]",HAI Titer EC>90,FimH [2],23.000 µM
same,IC50,UTI89 biofilm; [6],10 to 100 µM
same,IC50,UTI89 biofilm; [3],~90 µM
"CCCc1ccc(OC2OC(CO)C(O)C(O)C2O)cc1 (stereo not shown) [Compound 1ZFH179, 2-(hydroxymethyl)-6-(4-propylphenoxy)tetrahydropyran-3,4,5-triol]",HAI Titer EC>90,FimH [2],15.000 µM
same,IC50,UTI89 biofilm; [6],10 to 100 µM
same,IC50,UTI89 biofilm; [3],~55 µM
"O=C1Cc2cc(OC3OC(CO)C(O)C(O)C3O)ccc2O1 (stereo not shown) [Compound 1ZFH231, 5-[3,4,5-trihydroxy-6-(hydroxymethyl)tetrahydropyran-2-yl]oxy-3H-benzofuran-2-one]",HAI Titer EC>90,FimH [2],8.000 µM
same,IC50,UTI89 biofilm; [6],~25 µM
"O=C1NC2C=CC(OC3OC(CO)C(O)C(O)C3O)=CC2O1 (stereo not shown) [Compound 1ZFH256, 6-[3,4,5-trihydroxy-6-(hydroxymethyl)tetrahydropyran-2-yl]oxy-3a,7a-dihydro-3H-1,3-benzoxazol-2-one]",HAI Titer EC>90,FimH [2],4.000 µM
same,IC50,UTI89 biofilm; [6],10 to 25 µM
same,IC50,UTI89 biofilm; [3],~15 µM
COC(=O)c1sc(-c2ccc(OC3OC(CO)C(O)C(O)C3O)cc2)cc1NC(N)=O (stereo not shown) [Compound 4ZFH52],HAI Titer EC>50,FimH [2]; ZFH/JWJ codes,0.016 µM
same,IC50,UTI89 biofilm; [7],0.181 µM
"CNC(=O)c1cccc(-c2ccc(OC3O[C@@H](CO)[C@@H](O)[C@H](O)[C@H]3O)c(Cl)c2)c1 (stereo partly drawn) [Compound 4ZFH170, 3-[3-chloro-4-[(3R,4S,5S,6S)-3,4,5-trihydroxy-6-(hydroxymethyl)tetrahydropyran-2-yl]oxy-phenyl]-N-methyl-benzamide]",HAI Titer EC>90,FimH [2],0.125 µM
same,HAI Titer EC>50,FimH [2]; ZFH/JWJ codes,0.125 µM
same,HAI Titer EC>90,"FimH [2]; Table 22, ZFH/JWJ codes",0.125 µM
same,IC50,UTI89 biofilm; [7],0.523 µM
"COC(=O)c1cccc(-c2ccc(OC3O[C@@H](CO)[C@@H](O)[C@H](O)[C@H]3O)c(C)c2)c1 (stereo partly drawn) [Compound 4ZFH224, methyl 3-[3-methyl-4-[(3R,4S,5S,6S)-3,4,5-trihydroxy-6-(hydroxymethyl)tetrahydropyran-2-yl]oxy-phenyl]benzoate]",HAI Titer EC>90,FimH [2],0.125 µM
same,HAI Titer EC>50,FimH [2]; ZFH/JWJ codes,0.125 µM
same,HAI Titer EC>90,"FimH [2]; Table 22, ZFH/JWJ codes",0.125 µM
same,IC50,UTI89 biofilm; [7],0.333 µM
"COC(=O)c1cccc(-c2ccc(OC3O[C@@H](CO)[C@@H](O)[C@H](O)[C@H]3O)c(OC)c2)c1 (stereo partly drawn) [Compound 4ZFH228, methyl 3-[3-methoxy-4-[(3R,4S,5S,6S)-3,4,5-trihydroxy-6-(hydroxymethyl)tetrahydropyran-2-yl]oxy-phenyl]benzoate]",HAI Titer EC>90,FimH [2],0.188 µM
same,HAI Titer EC>50,FimH [2]; ZFH/JWJ codes,0.188 µM
same,HAI Titer EC>90,"FimH [2]; Table 22, ZFH/JWJ codes",0.188 µM
same,IC50,UTI89 biofilm; [7],0.886 µM
"COC(=O)c1cccc(-c2ccc(O[C@H]3O[C@H](CO)[C@@H](O)[C@H](O)[C@@H]3O)c(OC)c2)c1 [Compound 4e, Methyl 3-[3-methoxy-4-[(2R,3S,4S,5S,6R)-3,4,5-trihydroxy-6-(hydroxymethyl)tetrahydropyran-2-yl]oxy-phenyl]benzoate]",HAI Titer EC>90,"FimH [2]; Table 17, Examples 30-36 numbering",0.19 µM
same,IC50,UTI89 biofilm; [7],0.89 µM
"COC(=O)c1cncc(-c2ccc(O[C@H]3O[C@H](CO)[C@@H](O)[C@H](O)[C@@H]3O)cc2)c1 [Compound 12b, Methyl 5-[4-[(2R,3S,4S,5S,6R)-3,4,5-trihydroxy-6-(hydroxymethyl)tetrahydropyran-2-yl]oxyphenyl]pyridine-3-carboxylate]",HAI Titer EC>90,FimH [2]; [8],0.19 µM
"COC(=O)c1ccc(-c2ccc(O[C@H]3O[C@H](CO)[C@@H](O)[C@H](O)[C@@H]3O)cc2)s1 [Compound 13b, Methyl 5-[4-[(2R,3S,4S,5S,6R)-3,4,5-trihydroxy-6-(hydroxymethyl)tetrahydropyran-2-yl]oxyphenyl]thiophene-2-carboxylate]",HAI Titer EC>90,FimH [2]; [8],1.0 µM
"NC(=O)Nc1csc(-c2ccc(O[C@H]3O[C@H](CO)[C@@H](O)[C@H](O)[C@@H]3O)cc2)c1 [Compound 13c, [5-[4-[(2R,3S,4S,5S,6R)-3,4,5-Trihydroxy-6-(hydroxymethyl)tetrahydropyran-2-yl]oxyphenyl]-3-thienyl]urea]",HAI Titer EC>90,FimH [2]; [8],1.0 µM
COC(=O)c1csc(-c2ccc(O[C@H]3O[C@H](CO)[C@@H](O)[C@H](O)[C@@H]3O)cc2)c1 [Compound 13d],HAI Titer EC>90,FimH [2]; [8],2.0 µM
OCc1ccccc1-c1ccc(OC2OC(CO)C(O)C(O)C2O)cc1 (stereo not shown) [Compound 14g],fold less potent in HA titer,FimH [2]; ortho 14g relative to meta 14h,over 5 fold
same,EC50,"FimH [2]; read-out: 50% HA titer, Example 6 numbering",16 µM
same,EC90,FimH [2]; [9],16 µM
OCc1ccc(-c2ccc(OC3OC(CO)C(O)C(O)C3O)cc2)cc1 (stereo not shown) [Compound 14i],EC90,FimH [2]; [9],6 µM
CCCCCCCO[C@H]1O[C@H](CO)[C@@H](O)[C@H](O)[C@@H]1O [Heptylman],EC50,"FimH [2]; read-out: HA 50% titer, Table 13, Example 6 numbering",15 µM
same,EC50,FimH [1]; [4],0.089 µM
"CN(C)C(=O)c1cccc(-c2ccc(OC3OC(CO)C(O)C(O)C3O)cc2)c1 (stereo not shown) [JJ-I-93, N,N-dimethyl-3-[4-[3,4,5-trihydroxy-6-(hydroxymethyl)tetrahydropyran-2-yl]oxyphenyl]benzamide]",HAI Titer EC>90,FimH [2],3.000 µM
"COC1OC(CO)C(O)C(O)C1O (stereo not shown) [Methylaman, reference compound]",EC50,"FimH [2]; read-out: HA 50% titer, Example 6 numbering",> 1000 µM
"O=[N+]([O-])c1ccc(OC2OC(CO)C(O)C(O)C2O)cc1 (stereo not shown) [PNP-mannoside, reference compound]",HAI Titer EC>90,FimH [2],31.000 µM
"CCCCO[C@H]1O[C@H](CO)[C@@H](O)[C@H](O)[C@@H]1O [butyl-α-D-mannoside, reference compound]",EC90,FimH [2]; read-out: HAI Titer EC90,125 µM
